PMC8684776, “Discovery and characterization of potent And‐1 inhibitors for cancer treatment” (Clinical and Translational Medicine, 2021)

How the values were obtained:
[1] = test system: 60 human tumour cell lines; assay: NCI-60 one-dose screen, whole panel statistics; type: cell-based; settings: mean growth percentage against all 60 tumor cell lines, 10 μM
Procedure: The NCI‐60 cell line panel includes 60 human tumour cell lines. The effect of CH3 on tumour cell growth was tested at National Cancer Institute, Developmental Therapeutics Program (NCI‐DTP) by following the protocol as described previously.[47]
We next evaluate the inhibitory efficacy of CH3 against a panel of 60 human cancer cell lines at the NCI‐DTP. […] To further compare the efficacy of CH3 in the inhibition of NCI 60 cells, we examined the inhibitory effects of CH3 on 60 cells by using five doses of CH3.
FIGURE 5 The effect of CH3 treatment in the NCI‐60 human tumor cell line panel. (A) Mean graph display of NCI‐60 cell line screening data for CH3. The presented result is a one‐dose mean graph display of NCI‐60 cell line screening data for CH3 at 10 μM. The number reported for the one‐dose assay is growth relative to the no‐drug control. Bars deflecting to the right of the mean indicate relatively high sensitivity, and bars deflecting to the left of the mean indicate relatively low sensitivity to CH3. Experiments were performed at the NCI‐DTP. (B) Dose–response curves of CH3 for breast and ovarian cell lines from NCI‐60 cell line panel. All cells were tested at the NCI‐DTP in the presence of CH3 at five concentrations (0.01 μM, 0.1 μM, 1 μM, 10 μM and 100 μM). […]

[2] = Toxicity evaluation of treated mice (body weight, H&E staining of organs)
Procedure: To this end, we subcutaneously implanted IGROV1 or MCF7 cells into nude mice to form ovarian or breast tumors, respectively. The mice with these tumors were then treated with vehicle, 20 mg/kg or 40 mg/kg of CH3 via intraperitoneal injection.
To assess the efficacy of the combination of And‐1 inhibitors and cisplatin in vivo, we treated cisplatin resistant IGROV1 CR xenografts with vehicle, And‐1 inhibitors, cisplatin or a combination of cisplatin and And‐1 inhibitor via intraperitoneal injection.
week old female BALB/c athymic nude mice (CByJ.Cg-Foxn1nu/J, weighting 20-25g, from the Jackson
Laboratory) were inoculated subcutaneously by injecting the OC cells, cisplatin resistant OC cells or
breast cancer cells suspended in 100 µl ice-cold Matrigel/PBS (1:1, V:V; 5 x 10^6/mouse) into the dorsal
flank of each mouse. When the average tumor volume reached 100-150 mm3, the mice were randomized
into subsequent experiment groups. For tumors treated with CH3 only, CH3 was given at 0 mg/kg, 20
mg/kg and 40 mg/kg twice a week for three weeks.
were then given intraperitoneally at 8 mg/kg, 20 mg/kg and 2 mg/kg respectively twice a week for three
During the drug treatment, the tumor volume and body weight were measured.

IGROV1 CR xenografts = assay: Cisplatin resistant IGROV1 CR xenograft in nude mice; type: in vivo, mouse

## OB1OCc2cc(/C=C/c3ccc(Cl)c(Cl)c3)ccc21 [CH3, (E)‐5‐(3,4‐dichlorostyryl)benzo[c][1,2]oxaborol‐1(3H)‐ol]
[1]
  Growth Percent (Mean): 1.84%
[2]; IGROV1 CR xenograft mice, cisplatin 8 mg/kg + CH3 20 mg/kg or BZA 2 mg/kg
  toxicity of combination with cisplatin: body weight and organs (heart, liver, kidney, lung): no obvious systemic toxicity or side effect
[2]; xenograft mice, CH3 20 or 40 mg/kg intraperitoneal
  toxicity: body weight; H&E staining of heart, liver, kidney and lung: did not observe systemic toxicity or obvious side effects
IGROV1 CR xenografts
  expression of And‐1 in tumours (IHC): suppressed expression of And‐1 in tumours
IGROV1 CR xenografts; cisplatin 8 mg/kg + CH3 20 mg/kg or BZA 2 mg/kg, intraperitoneal, 3 weeks
  resistant tumour growth, combination with cisplatin vs cisplatin alone: significantly reduced resistant tumour growth
